Assay results: patent publication US5545639A, “Method of inhibiting transformed cells” (The United States of America as represented by the …, priority 1994, dated 1996)
pIC50: −log10 of the molar value.

Assays:
Type in all cases: cell-based
human tumor cell lines = assay: Example 5: dose response of growth of human tumor cell lines, overall panel
Description: (§1) Indeed, 70% of the cell lines were shown not only to experience precluded growth, but cell death, when exposed to less then 100 μM of the active ingredient.

DMS 114 = assay: Dose response of growth, tumor cell line; conditions: Homo sapiens, DMS 114, small cell lung cancer
Description: as §1

SW-620 = assay: Dose response of growth, tumor cell line; conditions: Homo sapiens, SW-620, colon cancer
Description: as §1

HCT-15 = assay: Dose response of growth, tumor cell line; conditions: Homo sapiens, HCT-15, colon cancer
Description: as §1

MOLT-4 = assay: Dose response of growth, tumor cell line; conditions: Homo sapiens, MOLT-4, leukemia
Description: as §1

XF 498 = assay: Dose response of growth, tumor cell line; conditions: Homo sapiens, XF498, XF 498, CNS cancer
Description: as §1

SK-OV-3 = assay: Dose response of growth, tumor cell line; conditions: Homo sapiens, SK-OV-3, ovarian cancer
Description: as §1

KM12 = assay: Dose response of growth, tumor cell line; conditions: Homo sapiens, KM12, colon cancer
Description: as §1

UACC-62 = assay: Dose response of growth, tumor cell line; conditions: Homo sapiens, UACC-62, melanoma
Description: as §1

EKVX = assay: Dose response of growth, tumor cell line; conditions: Homo sapiens, non-small cell lung cancer
Description: as §1

DLD-A = assay: Dose response of growth, tumor cell line; conditions: Homo sapiens, colon cancer
Description: as §1

SK-MEL-2 = assay: Dose response of growth, tumor cell line; conditions: Homo sapiens, SK-MEL-2, melanoma
Description: as §1

RXF-393 = assay: Dose response of growth, tumor cell line; conditions: Homo sapiens, RXF-393, renal cancer
Description: as §1

RPMT-8226 = assay: Dose response of growth, tumor cell line; conditions: Homo sapiens, RPMT-8226, leukemia
Description: as §1

HCC-2998 = assay: Dose response of growth, tumor cell line; conditions: Homo sapiens, HCC-2998, colon cancer
Description: as §1

UO-31 = assay: Dose response of growth, tumor cell line; conditions: Homo sapiens, UO-31, renal cancer
Description: as §1

OVCAR-4 = assay: Dose response of growth, tumor cell line; conditions: Homo sapiens, OVCAR-4, ovarian cancer
Description: as §1

M19-MEL = assay: Dose response of growth, tumor cell line; conditions: Homo sapiens, melanoma
Description: as §1

MCF7 = assay: Dose response of growth, tumor cell line; conditions: Homo sapiens, MCF7, miscellaneous
Description: as §1

NCI-H322M = assay: Dose response of growth, tumor cell line; conditions: Homo sapiens, non-small cell lung cancer
Description: as §1

IGROVI = assay: Dose response of growth, tumor cell line; conditions: Homo sapiens, ovarian cancer
Description: as §1

HOP-62 = assay: Dose response of growth, tumor cell line; conditions: Homo sapiens, HOP-62, non-small cell lung cancer
Description: as §1

SK-MEL-28 = assay: Dose response of growth, tumor cell line; conditions: Homo sapiens, SK-MEL-28, melanoma
Description: as §1

SN12C = assay: Dose response of growth, tumor cell line; conditions: Homo sapiens, renal cancer
Description: as §1

[1] = read-out: 50% Growth (Relative to Control)
[2] = read-out: No Growth (Relative to Control)

`ClCc1ccc2ccc3ccc(CCl)nc3c2n1` [2,9-bis(chloromethyl)-1,10-phenanthroline] was tested, and the IC (total growth inhibition) (human tumor cell lines; Homo sapiens, average, majority of cell lines, read-out: average concentration to preclude growth of the transformed cells in vitro, majority of cell lines) was about 5.66 µM, the “cessation of growth of transformed cells” value (human tumor cell lines; human tumor cell lines) was “nearly all transformed cells cease growth in the presence of micromolar concentrations” and the pIC50 (DMS 114; [1]) was 5.79. For the same molecule, the IC100 (DMS 114; [2]) was 3.53 µM, the pIC50 (SW-620; [1]) was 5.50 and the CC50 (SW-620; read-out: 50% Loss (50% kill)) was over 100 µM. It also gave an IC100 (SW-620; [2]) of 14.1 µM, a pIC50 (HCT-15; [1]) of 5.71 and a CC50 (HCT-15; read-out: 50% Loss (50% kill)) of over 100 µM. For the same molecule, the IC100 (HCT-15; [2]) was 6.47 µM, the pIC50 (MOLT-4; [1]) was 5.76 and the CC50 (MOLT-4; read-out: 50% Loss (50% kill)) was 9.34 µM. It also gave an IC100 (MOLT-4; [2]) of 4.02 µM, a pIC50 (XF 498; [1]) of 5.76 and a CC50 (XF 498; read-out: 50% Loss (50% kill)) of over 100 µM. The IC100 (XF 498; [2]) was 5.63 µM, the pIC50 (SK-OV-3; [1]) was 5.05 and the CC50 (SK-OV-3; read-out: 50% Loss (50% kill)) was over 10 µM. It also gave an IC100 (SK-OV-3; [2]) of over 10 µM, a pIC50 (KM12; [1]) of 6.12 and a CC50 (KM12; read-out: 50% Loss (50% kill)) of 6.43 µM. It also gave an IC100 (KM12; [2]) of 2.39 µM, a pIC50 (UACC-62; [1]) of 5.93 and a CC50 (UACC-62; read-out: 50% Loss (50% kill)) of 5.07 µM. For the same molecule, the IC100 (UACC-62; [2]) was 2.45 µM, the pIC50 (EKVX; [1]) was 4.55 and the CC50 (EKVX; read-out: 50% Loss (50% kill)) was over 100 µM. It also gave an IC100 (EKVX; [2]) of over 100 µM, a pIC50 (DLD-A; [1]) of 5.83 and a CC50 (DLD-A; read-out: 50% Loss (50% kill)) of 5.72 µM. The IC100 (DLD-A; [2]) was 2.91 µM, the pIC50 (SK-MEL-2; [1]) was 5.75 and the CC50 (SK-MEL-2; read-out: 50% Loss (50% kill)) was 16.6 µM. It also gave an IC100 (SK-MEL-2; [2]) of 4.81 µM, a pIC50 (RXF-393; [1]) of 5.78 and a CC50 (RXF-393; read-out: 50% Loss (50% kill)) of 6.03 µM. The IC100 (RXF-393; [2]) was 3.16 µM, the pIC50 (RPMT-8226; [1]) was 5.90 and the CC50 (RPMT-8226; read-out: 50% Loss (50% kill)) was over 100 µM. For the same molecule, the IC100 (RPMT-8226; [2]) was 36.6 µM, the pIC50 (HCC-2998; [1]) was 5.81 and the CC50 (HCC-2998; read-out: 50% Loss (50% kill)) was 6.18 µM. It also gave an IC100 (HCC-2998; [2]) of 3.11 µM, a pIC50 (UO-31; [1]) of 5.77 and a CC50 (UO-31; read-out: 50% Loss (50% kill)) of 6.08 µM. The IC100 (UO-31; [2]) was 3.21 µM, the pIC50 (OVCAR-4; [1]) was 5.50 and the CC50 (OVCAR-4; read-out: 50% Loss (50% kill)) was 34.9 µM. The IC100 (OVCAR-4; [2]) was 9.37 µM, the pIC50 (M19-MEL; [1]) was 5.88 and the CC50 (M19-MEL; read-out: 50% Loss (50% kill)) was 5.28 µM. The IC100 (M19-MEL; [2]) was 2.63 µM, the pIC50 (MCF7; [1]) was 6.25 and the CC50 (MCF7; read-out: 50% Loss (50% kill)) was 8.88 µM. It also gave an IC100 (MCF7; [2]) of 2.48 µM, a pIC50 (NCI-H322M; [1]) of 5.55 and a CC50 (NCI-H322M; read-out: 50% Loss (50% kill)) of 29.2 µM. The IC100 (NCI-H322M; [2]) was 8.41 µM, the pIC50 (IGROVI; [1]) was 5.82 and the CC50 (IGROVI; read-out: 50% Loss (50% kill)) was 6.25 µM. It also gave an IC100 (IGROVI; [2]) of 3.07 µM, a pIC50 (HOP-62; [1]) of 5.64 and a CC50 (HOP-62; read-out: 50% Loss (50% kill)) of 19.2 µM. It also gave an IC100 (HOP-62; [2]) of 5.3 µM, a pIC50 (SK-MEL-28; [1]) of 5.87 and a CC50 (SK-MEL-28; read-out: 50% Loss (50% kill)) of 6.5 µM. It also gave an IC100 (SK-MEL-28; [2]) of 2.97 µM, a pIC50 (SN12C; [1]) of 5.47 and a CC50 (SN12C; read-out: 50% Loss (50% kill)) of over 100 µM. It also gave an IC100 (SN12C; [2]) of over 100 µM.
